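Test compounds were applied to cells in 96-well plates for 48 hours at 5 doses. GI50 is the concentration that inhibits growth by half.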 Active and inactive are the calls of the source. No stated cut-off is given here; in the data, active = GI50 up to about 1.1 µM and inactive = higher.
Tests used:
Test in all cases: NCI tumour cell line growth inhibition, 48 h
UACC-257 = system: UACC-257
A498 = system: A498
SF-539 = system: SF-539
UACC-62 = system: UACC-62
NCI-H522 = system: NCI-H522
EKVX = system: EKVX
HCT-15 = system: HCT-15
Malme-3M = system: Malme-3M
SK-OV-3 = system: SK-OV-3
SF-295 = system: SF-295
MOLT-4 = system: MOLT-4
ACHN = system: ACHN
SF-268 = system: SF-268
SK-MEL-28 = system: SK-MEL-28
SR = system: SR

Row | Compound | GI50 (UACC-257) | GI50 (A498) | GI50 (SF-539) | GI50 (UACC-62) | GI50 (NCI-H522) | GI50 (EKVX) | GI50 (HCT-15) [µM] | GI50 (Malme-3M) | GI50 (SK-OV-3) | GI50 (SF-295) | GI50 (MOLT-4) | GI50 (ACHN) | GI50 (SF-268) | GI50 (SK-MEL-28) | GI50 (SR)
1 | C/C(=N\[N+](C)(C)C)C(c1ccccc1)C1(c2ccccc2)C(c2ccccc2)=C1c1ccccc1 (stereo unspecified) | > 100 µM (inactive) | > 100 µM (inactive) | 37.5 µM (inactive) | > 100 µM (inactive) | > 100 µM (inactive) | 40.7 µM (inactive) | 36.9 | > 100 µM (inactive) | > 100 µM (inactive) | 41.1 µM (inactive) | > 100 µM (inactive) | 88.1 µM (inactive) |  |  | 
2 | CC1=NN(C(=O)c2ccc(Cl)cc2)C(=O)/C1=C/c1cccc(O)c1 | > 100 µM (inactive) | > 100 µM (inactive) | > 100 µM (inactive) | > 100 µM (inactive) | > 100 µM (inactive) | > 100 µM (inactive) | > 100 | > 100 µM (inactive) | > 100 µM (inactive) | > 100 µM (inactive) | > 100 µM (inactive) | > 100 µM (inactive) | > 100 µM (inactive) | > 100 µM (inactive) | 
3 | COc1cc(CC2C(=O)OCC2[C@@H](OC(C)=O)c2ccc3c(c2)OCO3)c(Br)c(OC)c1OC (stereo partly specified) | 69.5 µM (inactive) |  | > 100 µM (inactive) | 37.8 µM (inactive) | 26.5 µM (inactive) | > 100 µM (inactive) | 19.1 | 37.9 µM (inactive) | > 100 µM (inactive) | 33.1 µM (inactive) | 35.2 µM (inactive) | 99.8 µM (inactive) | > 100 µM (inactive) | 73.3 µM (inactive) | 29.4 µM (inactive)
4 | NNC(=O)C(=O)N/N=C1\CCCC1C(=O)CCC(=O)Nc1cccc(Cl)c1 (stereo unspecified) | > 100 µM (inactive) |  |  | > 100 µM (inactive) |  | > 100 µM (inactive) |  | > 100 µM (inactive) |  | > 100 µM (inactive) | > 100 µM (inactive) | > 100 µM (inactive) | > 100 µM (inactive) | > 100 µM (inactive) | 
5 | CS(=O)(=O)ON1C(=O)c2ccc(N)cc2C1=O | > 31.6 µM (inactive) | > 100 µM (inactive) | > 72.9 µM (inactive) | > 64 µM (inactive) | 19.4 µM (inactive) | > 100 µM (inactive) | 71.4 | > 100 µM (inactive) | > 100 µM (inactive) | > 100 µM (inactive) | 21.4 µM (inactive) | > 100 µM (inactive) | > 50.6 µM (inactive) | > 49.4 µM (inactive) | 30 µM (inactive)
6 | COc1cc2nncc(Sc3cnnc4ccccc34)c2cc1OC | 23.1 µM (inactive) | 26.7 µM (inactive) | 21 µM (inactive) | 7.52 µM (inactive) | 12.9 µM (inactive) | 37.1 µM (inactive) | 24.7 | 17.2 µM (inactive) | 14.7 µM (inactive) | 26.9 µM (inactive) | 22.2 µM (inactive) | 20.1 µM (inactive) | 31.1 µM (inactive) | 23 µM (inactive) | 
7 | O=C(O)/C=C\C(=O)Nc1ccc(S(=O)(=O)c2ccc(NC(=O)/C=C\C(=O)O)cc2)cc1 | > 100 µM (inactive) |  | > 100 µM (inactive) | > 100 µM (inactive) | > 100 µM (inactive) | > 100 µM (inactive) | > 100 | > 100 µM (inactive) | > 100 µM (inactive) | > 100 µM (inactive) | > 100 µM (inactive) | > 100 µM (inactive) | > 100 µM (inactive) | > 100 µM (inactive) | > 100 µM (inactive)
8 | Cc1ccc(S(=O)(=O)C(C#N)c2nc3ccccc3nc2N2CCOCC2)cc1 (stereo unspecified) | 33.8 µM (inactive) | 53.7 µM (inactive) | 38.8 µM (inactive) | 12.4 µM (inactive) | 18.7 µM (inactive) | > 100 µM (inactive) | 31 | 27.5 µM (inactive) | 61.5 µM (inactive) |  | 19.2 µM (inactive) | 30.3 µM (inactive) | 28.6 µM (inactive) | 23.4 µM (inactive) | 28.1 µM (inactive)
9 | COc1cc([C@@H]2c3cc4c(cc3[C@@H](NC(=O)c3ccccc3)C3COC(=O)[C@@H]32)OCO4)cc(OC)c1O (stereo partly specified) | 2.99 µM (inactive) | 6.1 µM (inactive) | 6.14 µM (inactive) | 0.568 µM (active) | 0.423 µM (active) | 21.4 µM (inactive) | 9.84 | 3.61 µM (inactive) | 6.62 µM (inactive) | 3.51 µM (inactive) | 0.491 µM (active) | 1.45 µM (inactive) | 4.55 µM (inactive) | 13.8 µM (inactive) | 
10 | O=C(c1ccccc1)C(c1ccccc1)C1(O)C(=O)Nc2c(Cl)cc(Cl)cc21 (stereo unspecified) | 18.6 µM (inactive) |  |  |  | 16.6 µM (inactive) | 14.2 µM (inactive) | 39.4 | 18.6 µM (inactive) | 30.2 µM (inactive) | 17.7 µM (inactive) | 20.3 µM (inactive) | 17.1 µM (inactive) | 21.2 µM (inactive) | 18.9 µM (inactive) | 
11 | O=[N+]([O-])c1ccc(-c2noc(-c3ccccc3)c2C2=NCCN2)cc1 | 41.2 µM (inactive) |  | 42.7 µM (inactive) | > 100 µM (inactive) | 20.5 µM (inactive) | > 100 µM (inactive) | > 100 | > 100 µM (inactive) |  | 44.7 µM (inactive) | > 100 µM (inactive) | > 100 µM (inactive) | 63.2 µM (inactive) | > 100 µM (inactive) | 81.8 µM (inactive)
12 | Cn1cc(NC(=O)c2cc(NC(=O)CCCCCCC(=O)Nc3cc(C(=O)Nc4cc(C(=O)NCCC(=N)N)n(C)c4)n(C)c3)cn2C)cc1C(=O)NCCC(=N)N | 2.2 µM (inactive) | 1.93 µM (inactive) | 14.1 µM (inactive) | 7.6 µM (inactive) |  | 16.7 µM (inactive) | 32 | 2.67 µM (inactive) | > 100 µM (inactive) | 25.9 µM (inactive) |  | 8.85 µM (inactive) | 18.7 µM (inactive) | 4.22 µM (inactive) | 
13 | CCN(CC)CC1c2ccccc2C(CNc2ccccc2)N1C (stereo unspecified) | > 100 µM (inactive) |  |  | > 100 µM (inactive) | > 100 µM (inactive) | > 100 µM (inactive) | > 100 | > 100 µM (inactive) | > 100 µM (inactive) | > 100 µM (inactive) | 80.4 µM (inactive) | > 100 µM (inactive) | > 100 µM (inactive) | > 100 µM (inactive) | 
14 | COc1ccc(-c2cc(C(=O)Nc3ccc(C)c(C)c3)nc(NC#N)n2)cc1 | > 100 µM (inactive) | > 100 µM (inactive) | > 100 µM (inactive) | > 100 µM (inactive) | > 100 µM (inactive) | > 100 µM (inactive) | > 100 | > 100 µM (inactive) | > 100 µM (inactive) |  | > 100 µM (inactive) | > 100 µM (inactive) | > 100 µM (inactive) | > 100 µM (inactive) | 
15 | N#CC(NNC(=O)c1ccccc1O)c1cccc(O)c1 (stereo unspecified) | 10.1 µM (inactive) |  | 2.93 µM (inactive) | 1.85 µM (inactive) | 9.73 µM (inactive) |  | 5.31 | 12.9 µM (inactive) | 3.93 µM (inactive) | 3.67 µM (inactive) | 58.2 µM (inactive) | 2.31 µM (inactive) | 0.986 µM (active) | > 100 µM (inactive) | > 100 µM (inactive)
16 | CN(CCO)c1nc(=O)c2c(n1C1OC(CO)C(O)C(O)C1O)CCCC2 (stereo unspecified) | > 100 µM (inactive) |  | > 100 µM (inactive) | > 100 µM (inactive) | > 100 µM (inactive) | > 100 µM (inactive) | > 100 | > 100 µM (inactive) | > 100 µM (inactive) | > 100 µM (inactive) | > 100 µM (inactive) | > 100 µM (inactive) | > 100 µM (inactive) | > 100 µM (inactive) | > 100 µM (inactive)
17 | O.O=C([O-])c1ccccc1Nc1ccccc1C(=O)[O-].[Zn+2] | 14.3 µM (inactive) | 19.2 µM (inactive) | 37.7 µM (inactive) | 19.7 µM (inactive) | 13.2 µM (inactive) | 24.7 µM (inactive) | > 60 | 23.2 µM (inactive) | 20.4 µM (inactive) | 17.4 µM (inactive) | 30.5 µM (inactive) | > 100 µM (inactive) | 21 µM (inactive) | 19.9 µM (inactive) | 19 µM (inactive)
18 | N#Cc1cccc(-n2[nH]c(=O)ccc2=O)c1 | > 100 µM (inactive) |  | > 100 µM (inactive) | > 100 µM (inactive) | > 100 µM (inactive) |  | > 100 | > 100 µM (inactive) |  | > 100 µM (inactive) | > 100 µM (inactive) | > 100 µM (inactive) | > 100 µM (inactive) | > 100 µM (inactive) | > 100 µM (inactive)
19 | Cc1oc2c(C)c3oc(=O)cc(C)c3cc2c1CNC(=O)[C@@H]1OCCOCCOCCOCCOCCOC1C(=O)O (stereo partly specified) | > 100 µM (inactive) | > 100 µM (inactive) | > 100 µM (inactive) | > 100 µM (inactive) | > 100 µM (inactive) | > 100 µM (inactive) | > 100 | > 100 µM (inactive) | > 100 µM (inactive) | > 100 µM (inactive) | > 100 µM (inactive) | > 100 µM (inactive) | > 100 µM (inactive) |  | > 100 µM (inactive)
20 | O=C1C=CC2(C=C1)CCNC1=C2C(=O)c2ccccc2C1=O | 50 µM (inactive) | > 100 µM (inactive) | > 100 µM (inactive) | > 100 µM (inactive) | > 100 µM (inactive) | > 100 µM (inactive) | > 100 | > 100 µM (inactive) | > 100 µM (inactive) | > 100 µM (inactive) | > 100 µM (inactive) | > 100 µM (inactive) | > 100 µM (inactive) | > 100 µM (inactive) | 
21 | O=Cc1c[nH]c2c(=O)[nH]cnc12 | > 100 µM (inactive) |  |  | > 100 µM (inactive) | > 100 µM (inactive) | > 100 µM (inactive) | > 100 | > 100 µM (inactive) | > 100 µM (inactive) | > 100 µM (inactive) | > 100 µM (inactive) | > 100 µM (inactive) | > 100 µM (inactive) | > 100 µM (inactive) | > 100 µM (inactive)
